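Exposure lasted 48 hours, with cells grown in 96-well plates and compounds tested at five concentrations. Definition used: TGI = concentration required for complete inhibition of growth.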
Experiments:
Assay in all cases: growth of human tumour cells (NCI), 48 h
M14 melanoma = tested on: M14 melanoma
SK-MEL-2 melanoma = tested on: SK-MEL-2 melanoma
NCI-H460 lung = tested on: NCI-H460 lung
HCT-116 colon = tested on: HCT-116 colon
OVCAR-4 ovarian = tested on: OVCAR-4 ovarian
MALME-3M melanoma = tested on: MALME-3M melanoma
CAKI-1 renal = tested on: CAKI-1 renal
IGROV1 ovarian = tested on: IGROV1 ovarian
CCRF-CEM leukemia = tested on: CCRF-CEM leukemia
SN12C renal = tested on: SN12C renal
A549 NSCLC = tested on: A549 NSCLC
OVCAR-3 ovarian = tested on: OVCAR-3 ovarian
MOLT-4 leukemia = tested on: MOLT-4 leukemia
OVCAR-8 ovarian = tested on: OVCAR-8 ovarian
SK-MEL-5 melanoma = tested on: SK-MEL-5 melanoma
OVCAR-5 ovarian = tested on: OVCAR-5 ovarian
K-562 leukemia = tested on: K-562 leukemia
U251 CNS = tested on: U251 CNS
ACHN renal = tested on: ACHN renal
SK-OV-3 ovarian = tested on: SK-OV-3 ovarian
EKVX NSCLC = tested on: EKVX NSCLC
M19-MEL melanoma = tested on: M19-MEL melanoma
HT29 colon = tested on: HT29 colon
UACC-62 melanoma = tested on: UACC-62 melanoma
SK-MEL-28 melanoma = tested on: SK-MEL-28 melanoma
RXF 393 renal = tested on: RXF 393 renal
UACC-257 melanoma = tested on: UACC-257 melanoma
NCI-H23 lung = tested on: NCI-H23 lung
SW-620 colon = tested on: SW-620 colon
SNB-78 CNS = tested on: SNB-78 CNS
SR leukemia = tested on: SR leukemia
NCI-H226 lung = tested on: NCI-H226 lung
HL-60(TB) leukemia = tested on: HL-60(TB) leukemia
DMS 114 small cell lung = tested on: DMS 114 small cell lung
LOX IMVI melanoma = tested on: LOX IMVI melanoma
NCI-H522 lung = tested on: NCI-H522 lung
786-0 renal = tested on: 786-0 renal
SNB-75 CNS = tested on: SNB-75 CNS
COLO 205 colon = tested on: COLO 205 colon
DMS 273 small cell lung = tested on: DMS 273 small cell lung
HCT-15 colon = tested on: HCT-15 colon
DLD-1 colon = tested on: DLD-1 colon
HCC-2998 colon = tested on: HCC-2998 colon
RXF-631 renal = tested on: RXF-631 renal
KM12 colon = tested on: KM12 colon
HOP-92 NSCLC = tested on: HOP-92 NSCLC
A498 renal = tested on: A498 renal
RPMI-8226 leukemia = tested on: RPMI-8226 leukemia
HOP-18 NSCLC = tested on: HOP-18 NSCLC
HOP-62 NSCLC = tested on: HOP-62 NSCLC
LXFL 529 NSCLC = tested on: LXFL 529 NSCLC
KM20L2 colon = tested on: KM20L2 colon
UO-31 renal = tested on: UO-31 renal
SF-295 CNS = tested on: SF-295 CNS
SF-268 CNS = tested on: SF-268 CNS
SNB-19 CNS = tested on: SNB-19 CNS
TK-10 renal = tested on: TK-10 renal
SF-539 CNS = tested on: SF-539 CNS
XF 498 CNS = tested on: XF 498 CNS

Measured: TGI

Cn1[nH]cc2ccc3nc4ccccc4c(=O)c3c21
> 66.1 µM: RXF-631 renal
> 96.3 µM: SF-295 CNS
35.1 µM: SK-MEL-5 melanoma
26.6 µM: UACC-62 melanoma
67.6 µM: RPMI-8226 leukemia
> 94.9 µM: OVCAR-8 ovarian
> 74 µM: UACC-257 melanoma
53.4 µM: NCI-H23 lung
75.8 µM: OVCAR-4 ovarian
97.4 µM: HCT-15 colon
72.2 µM: TK-10 renal
> 95.1 µM: MOLT-4 leukemia
86.5 µM: CAKI-1 renal
68.7 µM: MALME-3M melanoma
92.6 µM: COLO 205 colon
92.8 µM: OVCAR-5 ovarian
> 66 µM: A549 NSCLC
45.5 µM: NCI-H226 lung
44.4 µM: RXF 393 renal
52.3 µM: UO-31 renal
> 88.5 µM: SK-MEL-28 melanoma
67.7 µM: A498 renal
> 83.9 µM: SNB-78 CNS | HOP-62 NSCLC
46.5 µM: LOX IMVI melanoma
94.5 µM: SNB-75 CNS
90.5 µM: HCC-2998 colon
> 83 µM: HOP-92 NSCLC
98.6 µM: ACHN renal
> 89.5 µM: NCI-H460 lung
64.9 µM: NCI-H522 lung
30.7 µM: U251 CNS
90.8 µM: HL-60(TB) leukemia
46.8 µM: M19-MEL melanoma
not listed: SF-539 CNS | XF 498 CNS
> 100 µM: all other assays above

C=C1C(=O)O[C@H](c2ccoc2)C[C@@H]1[C@@]1(C)CCCC2(C)C(=O)OCC21 (stereo not given in full)
not listed: SR leukemia | HL-60(TB) leukemia | DLD-1 colon | RXF-631 renal | HOP-92 NSCLC | HOP-18 NSCLC
> 100 µM: all other assays above

Source: PubChem BioAssay (NCI)
